In patent US10125121B2, “FYN kinase inhibitors” (ROTTAPHARM BIOTECH S.R.L., priority 2015, dated 2018):

Legend:
[1] = molecular target: BLK (Homo sapiens, UniProt P51451); test: Kinase selectivity panel by Cerep
[2] = molecular target: SRC (Homo sapiens, UniProt P12931); test: Kinase selectivity panel by Cerep
[3] = molecular target: active FYN (human recombinant, 62.7 kDa) (Homo sapiens, UniProt P06241); test: In vitro kinase assay (Z′-LYTE FRET); type: biochemical; conditions: read-out: IC50(nM) FYN INHIBITION
active FYN (human recombinant, 62.7 kDa), sequence (P06241 whole entry): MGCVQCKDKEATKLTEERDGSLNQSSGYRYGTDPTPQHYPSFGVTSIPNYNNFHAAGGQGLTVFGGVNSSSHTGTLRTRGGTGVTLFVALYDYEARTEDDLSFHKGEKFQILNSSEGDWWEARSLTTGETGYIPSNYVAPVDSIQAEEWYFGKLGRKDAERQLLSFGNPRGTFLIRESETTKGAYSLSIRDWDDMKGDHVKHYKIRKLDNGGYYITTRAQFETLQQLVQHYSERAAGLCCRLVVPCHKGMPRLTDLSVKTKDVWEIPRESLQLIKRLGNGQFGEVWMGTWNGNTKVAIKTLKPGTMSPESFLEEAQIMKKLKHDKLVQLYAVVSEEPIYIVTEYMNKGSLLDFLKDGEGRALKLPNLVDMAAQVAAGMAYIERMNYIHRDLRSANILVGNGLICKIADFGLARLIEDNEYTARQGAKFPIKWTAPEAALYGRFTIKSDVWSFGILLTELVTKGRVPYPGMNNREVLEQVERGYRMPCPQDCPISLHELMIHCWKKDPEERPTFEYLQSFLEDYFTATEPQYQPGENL

[4] = tested on: other kinases examined of the SRC family; test: Kinase selectivity panel by Cerep
[5] = molecular target: YES (Homo sapiens, UniProt P07947); test: Kinase selectivity panel by Cerep
YES, sequence (P07947 whole entry): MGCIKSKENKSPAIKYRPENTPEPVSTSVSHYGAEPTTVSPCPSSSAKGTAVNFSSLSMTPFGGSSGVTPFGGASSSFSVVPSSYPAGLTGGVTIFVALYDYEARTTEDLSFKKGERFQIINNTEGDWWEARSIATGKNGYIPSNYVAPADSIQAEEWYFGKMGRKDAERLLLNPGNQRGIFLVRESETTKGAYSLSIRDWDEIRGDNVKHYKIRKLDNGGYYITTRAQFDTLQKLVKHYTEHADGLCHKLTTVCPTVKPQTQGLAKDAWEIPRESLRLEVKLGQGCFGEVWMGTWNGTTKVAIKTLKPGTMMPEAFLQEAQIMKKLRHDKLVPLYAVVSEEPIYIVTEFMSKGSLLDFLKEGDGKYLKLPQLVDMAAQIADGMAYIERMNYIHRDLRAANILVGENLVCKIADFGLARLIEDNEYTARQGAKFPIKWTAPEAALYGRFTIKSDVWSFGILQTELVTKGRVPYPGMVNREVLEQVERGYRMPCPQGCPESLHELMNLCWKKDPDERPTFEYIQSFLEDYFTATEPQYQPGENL

[6] = tested on: remaining kinases examined (standard panel of about 100 human kinase assay); test: Kinase selectivity panel by Cerep
[7] = molecular target: FLT-4 (Homo sapiens, UniProt P35916); test: Kinase selectivity panel by Cerep; conditions: read-out: inhibition of FLT-4
FLT-4, sequence (P35916 25-1363): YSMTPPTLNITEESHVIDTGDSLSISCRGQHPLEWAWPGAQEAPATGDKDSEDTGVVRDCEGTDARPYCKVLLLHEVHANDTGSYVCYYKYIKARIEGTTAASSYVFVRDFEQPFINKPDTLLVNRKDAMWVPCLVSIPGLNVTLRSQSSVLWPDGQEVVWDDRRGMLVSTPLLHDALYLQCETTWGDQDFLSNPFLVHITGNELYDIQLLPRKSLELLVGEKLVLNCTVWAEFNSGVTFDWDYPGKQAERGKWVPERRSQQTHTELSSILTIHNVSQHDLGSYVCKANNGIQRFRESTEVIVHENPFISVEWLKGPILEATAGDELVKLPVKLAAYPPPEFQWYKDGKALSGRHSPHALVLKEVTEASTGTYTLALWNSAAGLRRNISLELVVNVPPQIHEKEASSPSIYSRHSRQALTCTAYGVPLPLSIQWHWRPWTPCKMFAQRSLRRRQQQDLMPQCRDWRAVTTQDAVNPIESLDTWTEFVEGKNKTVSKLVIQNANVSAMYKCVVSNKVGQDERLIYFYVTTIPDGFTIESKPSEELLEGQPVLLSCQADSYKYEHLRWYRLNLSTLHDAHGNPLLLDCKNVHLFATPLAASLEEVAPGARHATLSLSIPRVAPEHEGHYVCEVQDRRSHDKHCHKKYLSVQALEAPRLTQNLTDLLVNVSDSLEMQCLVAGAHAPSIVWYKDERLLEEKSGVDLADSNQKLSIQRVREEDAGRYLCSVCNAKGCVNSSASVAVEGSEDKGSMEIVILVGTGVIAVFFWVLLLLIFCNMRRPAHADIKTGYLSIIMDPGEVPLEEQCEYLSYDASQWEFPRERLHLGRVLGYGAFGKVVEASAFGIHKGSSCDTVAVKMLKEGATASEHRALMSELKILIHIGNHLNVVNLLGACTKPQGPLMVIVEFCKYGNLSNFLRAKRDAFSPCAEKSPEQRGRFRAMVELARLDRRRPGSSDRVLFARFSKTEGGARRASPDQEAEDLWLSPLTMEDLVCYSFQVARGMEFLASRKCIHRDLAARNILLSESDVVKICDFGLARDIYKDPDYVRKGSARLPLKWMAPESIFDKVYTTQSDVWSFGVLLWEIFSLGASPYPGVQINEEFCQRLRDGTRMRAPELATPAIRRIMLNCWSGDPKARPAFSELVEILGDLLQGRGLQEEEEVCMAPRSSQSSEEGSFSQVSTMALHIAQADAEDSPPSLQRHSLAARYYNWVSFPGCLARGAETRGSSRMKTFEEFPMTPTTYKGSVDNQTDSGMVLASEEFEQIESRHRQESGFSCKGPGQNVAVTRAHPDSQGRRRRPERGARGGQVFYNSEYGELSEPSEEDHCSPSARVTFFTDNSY

[8] = molecular target: RET (Homo sapiens, UniProt P07949); test: Kinase selectivity panel by Cerep; conditions: read-out: inhibition of RET
[9] = molecular target: LCK (Homo sapiens, UniProt P06239); test: Kinase selectivity panel by Cerep
LCK, sequence (P06239 whole entry): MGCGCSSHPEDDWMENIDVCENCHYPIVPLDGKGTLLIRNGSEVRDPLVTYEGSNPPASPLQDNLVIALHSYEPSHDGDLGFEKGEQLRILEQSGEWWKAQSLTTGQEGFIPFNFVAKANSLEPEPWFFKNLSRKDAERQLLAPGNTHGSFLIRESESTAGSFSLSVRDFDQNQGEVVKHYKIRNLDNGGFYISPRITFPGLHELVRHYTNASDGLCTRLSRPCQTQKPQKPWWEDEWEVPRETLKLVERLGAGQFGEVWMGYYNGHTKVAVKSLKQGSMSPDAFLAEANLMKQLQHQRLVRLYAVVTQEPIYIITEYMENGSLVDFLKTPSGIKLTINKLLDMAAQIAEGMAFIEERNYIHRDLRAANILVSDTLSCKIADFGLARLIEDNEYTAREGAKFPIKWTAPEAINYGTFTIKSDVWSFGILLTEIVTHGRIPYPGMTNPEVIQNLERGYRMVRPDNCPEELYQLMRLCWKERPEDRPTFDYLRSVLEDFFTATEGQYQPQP

[10] = molecular target: LYN (Homo sapiens, UniProt P07948); test: Kinase selectivity panel by Cerep
LYN, sequence (P07948 whole entry): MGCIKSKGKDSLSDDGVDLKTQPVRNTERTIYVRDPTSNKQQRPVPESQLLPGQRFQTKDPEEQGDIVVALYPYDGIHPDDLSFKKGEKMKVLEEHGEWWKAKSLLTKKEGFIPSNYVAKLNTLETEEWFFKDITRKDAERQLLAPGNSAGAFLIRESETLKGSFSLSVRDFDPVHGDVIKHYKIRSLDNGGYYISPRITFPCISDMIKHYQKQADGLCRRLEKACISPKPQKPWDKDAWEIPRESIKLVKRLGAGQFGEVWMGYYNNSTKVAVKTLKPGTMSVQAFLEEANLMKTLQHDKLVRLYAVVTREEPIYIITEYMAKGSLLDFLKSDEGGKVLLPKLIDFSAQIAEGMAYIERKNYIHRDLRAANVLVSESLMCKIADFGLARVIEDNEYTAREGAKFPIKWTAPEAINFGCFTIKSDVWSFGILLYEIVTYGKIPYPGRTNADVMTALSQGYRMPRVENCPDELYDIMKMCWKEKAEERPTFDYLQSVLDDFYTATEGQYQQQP

[11] = molecular target: HCK (Homo sapiens, UniProt P08631); test: Kinase selectivity panel by Cerep
HCK, sequence (P08631 whole entry): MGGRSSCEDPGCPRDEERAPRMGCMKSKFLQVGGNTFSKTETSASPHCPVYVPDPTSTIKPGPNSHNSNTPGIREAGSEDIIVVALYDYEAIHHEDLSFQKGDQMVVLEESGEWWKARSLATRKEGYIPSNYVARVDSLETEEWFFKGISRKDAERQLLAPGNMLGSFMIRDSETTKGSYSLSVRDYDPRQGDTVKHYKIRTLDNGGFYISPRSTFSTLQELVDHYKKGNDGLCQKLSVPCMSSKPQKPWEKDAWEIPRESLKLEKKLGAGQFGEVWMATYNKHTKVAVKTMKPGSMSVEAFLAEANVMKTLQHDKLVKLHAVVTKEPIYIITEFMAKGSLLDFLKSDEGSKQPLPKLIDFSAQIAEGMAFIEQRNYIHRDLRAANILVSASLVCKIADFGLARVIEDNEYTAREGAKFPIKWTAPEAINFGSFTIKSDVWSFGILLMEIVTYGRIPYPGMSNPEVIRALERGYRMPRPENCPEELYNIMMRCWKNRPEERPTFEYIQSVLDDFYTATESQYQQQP

[12] = tested on: CFA induced hyperalgesia; test: CFA-induced inflammatory pain in rats (Randall-Selitto paw withdrawal threshold); type: in vivo; conditions: 3; rat, 24 h after administration
Procedure: Male Wistar rats were injected into the right hind footpad with 300 μg of Mycobacterium tuberculosis in 100 μL of liquid paraffin (Complete Freund's Adjuvant; CFA). Seventy-two hours later, compounds 2 and 26 were administered subcutaneously and 24 h after the administration, the response to noxious mechanical stimulation was assessed by measuring paw withdrawal threshold (PWT) with an analgesimeter of the Randall-Selitto type. Animals were gently restrained, and steadily increasing pressure was applied to the dorsal surface of both the ipsi-lateral (CFA-treated) and the contra-lateral paw via a dome-shaped plastic tip.
100% protection means that the animal treated with the compound and CFA can tolerate the same stimulus (weight) as the control animal which has not received CFA treatment.

[13] = molecular target: T1, FLT-3 (Homo sapiens, UniProt P36888); test: Kinase selectivity panel by Cerep; conditions: read-out: inhibition of FLT-3
T1 sequence (P36888 27-993): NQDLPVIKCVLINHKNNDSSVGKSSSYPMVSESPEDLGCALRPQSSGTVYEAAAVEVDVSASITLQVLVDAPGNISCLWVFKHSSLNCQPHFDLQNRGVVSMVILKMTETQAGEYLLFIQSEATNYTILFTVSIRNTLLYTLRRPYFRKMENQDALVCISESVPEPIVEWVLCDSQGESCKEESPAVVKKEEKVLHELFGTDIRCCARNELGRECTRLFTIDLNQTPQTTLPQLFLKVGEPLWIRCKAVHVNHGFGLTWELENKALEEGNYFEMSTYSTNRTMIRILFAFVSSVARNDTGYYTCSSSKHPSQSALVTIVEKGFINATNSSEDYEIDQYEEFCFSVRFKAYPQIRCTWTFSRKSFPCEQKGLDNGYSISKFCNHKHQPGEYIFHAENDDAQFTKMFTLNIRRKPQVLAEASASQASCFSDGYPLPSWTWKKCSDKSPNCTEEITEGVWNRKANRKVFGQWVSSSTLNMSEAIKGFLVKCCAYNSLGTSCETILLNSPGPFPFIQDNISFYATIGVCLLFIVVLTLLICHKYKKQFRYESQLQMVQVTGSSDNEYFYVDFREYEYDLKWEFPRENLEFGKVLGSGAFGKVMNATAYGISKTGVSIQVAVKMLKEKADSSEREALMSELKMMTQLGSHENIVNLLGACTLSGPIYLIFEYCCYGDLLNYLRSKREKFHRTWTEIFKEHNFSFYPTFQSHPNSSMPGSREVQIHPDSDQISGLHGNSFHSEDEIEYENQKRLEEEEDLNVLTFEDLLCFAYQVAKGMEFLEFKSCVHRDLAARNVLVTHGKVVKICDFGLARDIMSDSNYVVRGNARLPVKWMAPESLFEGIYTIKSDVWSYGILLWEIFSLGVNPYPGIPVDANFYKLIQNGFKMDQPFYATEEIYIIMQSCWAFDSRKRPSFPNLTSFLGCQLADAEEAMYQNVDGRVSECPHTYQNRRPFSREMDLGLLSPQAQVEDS

SRC, sequence (P12931 whole entry): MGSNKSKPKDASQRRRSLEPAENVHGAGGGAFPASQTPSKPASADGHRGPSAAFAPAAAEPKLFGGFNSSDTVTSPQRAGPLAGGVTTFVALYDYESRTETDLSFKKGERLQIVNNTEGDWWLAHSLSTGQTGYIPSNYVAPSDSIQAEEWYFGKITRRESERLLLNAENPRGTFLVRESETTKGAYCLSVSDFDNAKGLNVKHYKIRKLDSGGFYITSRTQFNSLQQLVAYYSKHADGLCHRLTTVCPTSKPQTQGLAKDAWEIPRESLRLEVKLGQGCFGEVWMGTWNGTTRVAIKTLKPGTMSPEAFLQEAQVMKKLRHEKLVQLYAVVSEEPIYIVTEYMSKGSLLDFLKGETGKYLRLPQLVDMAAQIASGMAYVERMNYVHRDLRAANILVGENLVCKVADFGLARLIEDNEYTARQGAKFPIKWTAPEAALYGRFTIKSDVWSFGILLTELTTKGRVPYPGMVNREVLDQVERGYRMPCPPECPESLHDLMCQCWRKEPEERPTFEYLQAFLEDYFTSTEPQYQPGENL
BLK, sequence (P51451 whole entry): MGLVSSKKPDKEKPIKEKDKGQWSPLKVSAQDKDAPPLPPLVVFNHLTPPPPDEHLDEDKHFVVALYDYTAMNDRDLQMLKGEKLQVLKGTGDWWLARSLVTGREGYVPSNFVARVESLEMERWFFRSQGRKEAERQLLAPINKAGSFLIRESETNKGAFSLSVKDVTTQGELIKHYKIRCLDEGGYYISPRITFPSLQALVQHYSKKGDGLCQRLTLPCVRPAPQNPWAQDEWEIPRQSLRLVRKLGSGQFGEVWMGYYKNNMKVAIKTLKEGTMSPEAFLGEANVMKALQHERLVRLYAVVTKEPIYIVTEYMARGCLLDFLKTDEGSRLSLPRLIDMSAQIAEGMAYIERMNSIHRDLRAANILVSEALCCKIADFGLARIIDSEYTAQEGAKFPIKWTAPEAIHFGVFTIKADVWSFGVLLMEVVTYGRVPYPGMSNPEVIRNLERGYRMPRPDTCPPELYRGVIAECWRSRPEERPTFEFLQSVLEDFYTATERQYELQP

O=C(Nc1ccc(CN2CCN(c3nccc(Nc4cc(C5CC5)[nH]n4)n3)CC2)cc1)c1ccccc1C(F)(F)F [Compound 2, N-(4-((4-(4-((5-cyclopropyl-1H-pyrazol-3-yl)amino)pyrimidin-2-yl)piperazin-1-yl)methyl)phenyl)-2-(trifluoromethyl)-benzamide]
IC50 [1]: 480 nM
IC50 [2]: 730 nM
IC50 [3]: 9 nM
average potency ratio (other SRC family kinases vs FYN) [4]: about 100
IC50 ([4]; read-out: IC50, all other kinases examined of the SRC family): > 100 nM
IC50 [5]: 270 nM
effect on more than 70% of the remaining kinases examined [6]: practically ineffective
inhibition at 0.1 µM [7]: > 50%
inhibition at 0.1 µM [8]: > 50%
IC50 [9]: 450 nM
IC50 [10]: 1400 nM
IC50 [11]: 3200 nM
% protective effect vs. CFA induced hyperalgesia [12]: 100%
inhibition at 0.1 µM [13]: > 50%
